Data published in patent EP1060182B1, “NOVEL PRODRUGS FOR PHOSPHORUS-CONTAINING COMPOUNDS” (Metabasis Therapeutics, Inc., priority 1998, dated 1999).
“Also recorded” adds a separate entry of the source. Blank lines part the entries; values can stand above or below the molecule they belong to.

Key:
[1] = in rodents; cited from earlier work
[2] = Stability in plasma (Example C); format: in vitro ADME, rat; conditions: 37°C, 5-8 hours, reverse phase HPLC
Method: Methods: Compounds were incubated in plasma at 37°C, and aliqouts removed at appropriate time points over the course of 5-8 hours. The aliquots were extracted with 1.5 volumes of methanol and clarified by centrifugation. Supernatants were then evaporated to dryness and the residues reconstituted with 100 µL of isotonic saline and then analyzed by reverse phase HPLC.

[3] = system: Rat liver microsomes; conditions: linear over a 5 hour reaction period, equimolar products
Method: 1.1 was evaluated for microsome-catalyzed conversion to parent compound 2-{5-[9-(2-Phenylethyl)-8-adeninyl]} furanylphosphonic acid and phenol, an expected byproduct of the reaction.
Methods: Rat liver microsomes were prepared as described in Example I. Reaction conditions, sample processing, and HPLC analysis were as described in Example D. Phenol was identified by HPLC by its retention time and spectral characteristics relative to an authentic standard.

[4] = system: glucose production in isolated rat hepatocytes; assay: Inhibition of glucose production in rat hepatocytes (Example J); format: cell-based; conditions: 1 hour, lactate 10 mM / pyruvate 1 mM
Method: Select prodrugs of FBPase inhibitors were tested for inhibition of glucose production in isolated rat hepatocytes.
After a 10 minute equilibration period, lactate and pyruvate were added to 10 mM and 1 mM concentrations, respectively. Addition of gluconeogenic substrates was immediately followed by that of appropriate concentrations of test compound. After 1 hour, an aliquot (0.25 ml) was removed, transferred to an Eppendorf tube and centrifuged. The supernatant (50 µl) was then assayed for glucose content using a Glucose Oxidase kit (Sigma Chemical Co.) as per the manufacturer's instructions.

[5] = system: microsomal fraction of rat liver; assay: Activation by rat liver microsomes (Example D); format: in vitro ADME; conditions: 100 µM 7.1, 37°C; in the presence, but not in the absence of, NADP+; rate linearly dependent on microsomal protein
Method: The pellet was resuspended in homogenization buffer and recentrifuged.
Reactions were carried out at 37°C.
Reactions are monitored spectrophotometrically at 340 nm.

[6] = system: isolated rat hepatocytes; assay: Activation to parent compound in isolated rat hepatocytes (Example I); format: cell-based; conditions: 100 µM prodrug, peak within 15 minutes of addition
From the text: An ODS column was used for analysis. […] Detection was at 310 nm.

[7] = system: microsomal fraction of human liver; assay: Activation by human liver microsomes (Example E); format: in vitro ADME; conditions: 250 µM prodrug, 37°C, NADPH-generating system
Method: 7.1, 1.3, and 30.1 were tested for conversion to their respective parent compounds by the microsomal fraction of human liver.

[8] = system: recombinant CYP3A4; assay: Activation by recombinant CYP3A4 (Example G); format: in vitro ADME; conditions: 28.4 at 100 µM, 37°C, NADPH dependent, linear for 30 minutes
Method: Activation of 30.1 and 28.4 was evaluated in reactions containing microsomes from baculovirus-infected insect cells co-expressing recombinant CYP3A4 and cytochrome p450 reductase (Panvera Corp., Madison, WI).
Methods: Reaction mixture composition was similar to that described in Example E. Reactions were terminated by addition of methanol to a final concentration of 60%, and products typically analyzed by HPLC with use of a YMC reverse phase C8 column (250 x 4.6 mm). […] The effluent was monitored at 254 nm.

[9] = Hepatic PMEA-diphosphate and plasma PMEA after intravenous dosing (Example P); format: in vivo, rat; conditions: 10 mg/kg PMEA equivalents i.v.
[10] = system: isolated rat hepatocytes; assay: Active drug metabolites formed after prodrug activation in isolated rat hepatocytes (Example K); conditions: for Product concentration nmoles/g cells (PMEApp): time point 4h
Method: Methods: Hepatocytes were prepared and incubated as described in Example I. 28.4 and 30.1 and their respective parent compounds, PMEA and ara-AMP, were dissolved in DMSO or methanol to yield 10 mM stock solutions, and then diluted into the cell suspension to yield a final concentration of 100 µM. At appropriate time points over the course of 2-4 hours, aliquots of the cell suspension were removed and spun through a silicon/mineral oil layer into 10% perchloric acid. The cell extracts in the acid layers were neutralized by the addition of 0.3 volumes of 3M KOH/3M KHCO3, and the extract was then centrifuged, filtered (0.2 micron filter) and loaded onto an anion exchange HPLC column equilibrated with 70% A (10 mM ammonium phosphate pH 3.5, 6% ETOH) and 30% B (1 M ammonium phosphate pH 3.5, 6% ETOH). Ara-ATP and PMEApp were eluted with a gradient to 80% B. Detection was at 254 nm.

[11] = i.v., over 2.5 minutes; cited from earlier work
[12] = intravenous administration to human patients; cited from earlier work
[13] = Liver ara-ATP and plasma/urine ara-hypoxanthine after intravenous dosing (Example O); format: in vivo, rat
Method: The temporal profile of ara-hypoxanthine and ara-ATP generation following intravenous administration of 30.1 and free ara-AMP was compared in the rat.
Method: 30.1 and ara-AMP (Sigma) were administered to normal, fasted rats intravenously (in saline) via tail vein catheters. At appropriate time points following drug a administration, animals were lightly anesthetized with halothane. The peritoneal cavity was then opened and a blood sample was obtained from the abdominal vena cava and the liver freeze-clamped and excised.
The blood samples were heparinized and plasma was prepared. Plasma samples (100 µL) were mixed with 4 N perchloric acid (40 µL), vortexed, and then clarified by centrifugation. The supernatants were analyzed for ara-hypoxanthine by HPLC with use of a Beckman Ultrasphere ODS column (4.6 x 150 mm). The column was eluted with 100 mM acetic acid at a flow rate of 1.0 mL/min. The eluent was monitored by UV absorbance at 254 nm.
Livers were immediately homogenized in 3 volumes of 10% perchloric acid (w/w), and the extracts clarified by centrifugation at 2500 x g (5 minutes). The resulting supernatants were removed and neutralized with 0.3 volumes of 3M KOH/ 3M KHCO3. The neutralized liver extracts were then spun in an Eppendorf microfuge at 10,000 rpm (20 minutes, 4°C). The supernatants were analyzed for ara-ATP content by reverse phase HPLC (HP1050) using a Whatman Partisphere SA column (4.6 x 125 mm). A gradient from 0.3M ammonium phosphate buffer pH 3.5 to 0.8M ammonium phosphate pH 3.5 was run (1 ml/minute flow rate).
Renal excretion of araH following i.v. administration of 30.1 or ara-AMP was determined as described in Example Q.

SMILES: CC(C)(C)C(=O)OCOP(=O)(OCOC(=O)C(C)(C)C)C(CCCc1cccc(Oc2ccccc2)c1)S(=O)(=O)O (centres unmarked) [BMS 188494]
oral bioavailability [1]: < 2%

SMILES: Nc1ncnc2c1nc(-c1ccc(P3(=O)OC4CC(O)CC(C4)O3)o1)n2CCc1ccccc1 (centres unmarked) [Compound 1.1, 6-Amino-8-(5'-hydroxyl-1',3'-cyclohexyl)phosphonofuranyl-9-phenethyl purine]
metabolism / degradation in fresh rat plasma [2]: not degraded; also recorded: no evidence of metabolism
rate of generation of 2-{5-[9-(2-Phenylethyl)-8-adeninyl]}furanylphosphonic acid and phenol [3]: 15 pmoles /mg microsomal protein/minute
IC50 [4]: 77 µM

metabolism / degradation in fresh rat plasma [2]: not degraded
SMILES: CC(C)(C)Cn1c(-c2ccc(P3(=O)OC4CC(O)CC(C4)O3)o2)nc2c(N)ncnc21 (centres unmarked) [Compound 1.2, 6-Amino-8-(5'-hydroxyl-1',3'-cyclohexyl)phosphonofuranyl-9-neopentyl purine]

conversion to parent compound [5]: converted to parent compound
peak intrahepatocyte levels of 6-Chloro-1-isobutyl-2-(2-Phosphono-5-furanyl)benzimidazole [6]: approximately 700 nmoles/g cells
rate of formation of parent compound [7]: 0.85 nmoles/mg microsomal protein/minute
SMILES: CC(C)Cn1c(-c2ccc(P3(=O)OCC(CO)CO3)o2)nc2ccc(Cl)cc21 (centres unmarked) [Compound 7.1, 6-Chloro-1-isobutyl-2-{5-[2'-(hydroxymethyl)-propan-1',3'-yl]phosphono-2-furanyl}benzimidazole]
inhibition at 100 µM ([4]; Rattus norvegicus, Hepatocyte, read-out: % inhibition @ 100 µM, 100 µM): 65%
IC50 ([4]; Rattus norvegicus, Hepatocyte): 48 µM

SMILES: CC(=O)OCC1COP(=O)(c2ccc(-c3nc4c(N)ncnc4n3CC(C)(C)C)o2)OC1 (centres unmarked) [Compound 7.5, 6-Amino-9-neopentyl-8-{5-[2'-(acetoxymethyl)-propan-1',3'-yl]phosphono-2-furanyl}purine]
IC50 [4]: 13 µM

SMILES: Nc1ncnc2c1ncn2CCOCP1(=O)OCCC(c2ccncc2)O1 (centres unmarked) [Compound 28.4, 9-[2-(1-(4-Pyridyl)-1,3-propylphosphonomethoxy)ethyl]adenine]
rate of formation of PMEA [8]: 3.1 ± 0.1 nmoles/ min/ nmole CYP3A4
PMEA-diphosphate in liver [9]: readily detectable levels
Plasma PMEA levels relative to bisPOM-PMEA [9]: greater than 10 fold lower
Product concentration nmoles/g cells (PMEApp) ([10]; Dose 100 µM): 169 nmoles/g cells

SMILES: Nc1ncnc2c1ncn2CCOCP(=O)(O)O [PMEA, 9-(2-phosphonylmethoxyethyl) adenine, reference compound]
Product concentration nmoles/g cells (PMEApp) ([10]; Dose 250 µM): 120 nmoles/g cells

Product concentration nmoles/g cells (ara-ATP) ([10]; Dose 100 µM, time point 2h): 212±0.6 nmoles/g cells
persistence of ara-hypoxanthine in plasma ([13]; ara-AMP i.v. at equivalent doses): 8 h
ara-hypoxanthine (araH) in plasma ([13]; i.v., 30.1 at 10 and 3 mg/kg, ara-AMP at equivalent doses): µmolar levels
plasma half-life of free ara-AMP relative to 30.1 ([13]; judged by inability to detect the compound in plasma): considerably shorter
SMILES: Nc1ncnc2c1ncn2[C@@H]1O[C@H](COP(=O)(O)O)[C@@H](O)[C@@H]1O [araAMP, reference compound]
drop of plasma ara-AMP levels [11]: greater than 90%
ara-AMP in plasma [12]: not detected in plasma

SMILES: CC(C)(C)C(=O)OCOP(=O)(COCCn1cnc2c(N)ncnc21)OCOC(=O)C(C)(C)C [bisPOM-PMEA, reference compound]
PMEA-diphosphate in liver [9]: readily detectable levels
